These results are taken from patent publication US8372836B2, “Spray dried formulation” (Bend Research, Inc., priority 2006, dated 2013).

Values after ≈ are worked out from the molar mass of the structure shown. Like-named read-outs stand apart in the source and are kept apart here.

Data set [1] is described as follows: Aqueous solubility of neutral form of drug (MFD or PBS solution, pH 6.5). In kind it is physicochemical.
Method: Solubility may be measured at 25° C. in water or a phosphate buffered saline (PBS) solution adjusted to a pH between 6 and 7.
An appropriate PBS solution is an aqueous solution comprising 20 mM sodium phosphate (Na2HPO4), 47 mM potassium phosphate (KH2PO4), 87 mM NaCl, and 0.2 mM KCl, adjusted to pH 6.5 with NaOH. An appropriate MFD solution is the same PBS solution wherein there is also present 7.3 mM sodium taurocholic acid and 1.4 mM of 1-palmitoyl-2-oleyl-sn-glycero-3-phosphocholine. In particular, a composition of the present invention may be dissolution-tested by adding it to MFD or PBS solution and agitating to promote dissolution.
The nature of data set [2]: Solubility in volatile organic solvents. In kind it is physicochemical. The conditions noted are these: for solubility: organic solvent or mixture. The source says:
The drug is poorly soluble in volatile organic solvents. By “volatile organic solvent” is meant a solvent selected from the group consisting of acetone, methanol, tetrahydrofuran, ethyl acetate, mixtures of any one of these with water, and mixtures of these with each other. […] As used herein, the solubility is assumed to be measured at ambient temperature and pressure.

Another data set can be described thus: Acidic pKa. To be noted: for pKa: distilled water. In kind it is physicochemical.
The nature of data set [3]: In vitro dissolution test of Drug 1 dispersions in MFD solution. The class given is physicochemical. The conditions noted are these: 37° C. The procedure:
For these tests, suspensions were formed by adding a sufficient quantity of the dispersions of Example 1 or Example 2 to water containing 0.5 wt % Methocel Type A such that each suspension contained 7.2 mgA/mL Drug 1. Next, a 50 μL sample of each suspension was added to microcentrifuge tubes in duplicate. […] HPLC analysis was performed using an Zorbax RX-C18 4.6×75 mm […] column, with a mobile phase of 63/37 v/v aqueous 0.1 wt % trifluoroacetic acid/acetonitrile, and UV absorbance measured at 220 nm.
The concentrations of dissolved Drug 1 obtained in these samples were used to determine the maximum dissolved concentration of Drug 1 in solution during the first ninety minutes of the test (MDC90), the area under the concentration-versus-time curve during the initial ninety minutes (“AUC90”), and the concentration of Drug 1 at 1200 minutes (“C1200”).

The nature of data set [4]: In vitro dissolution test of Drug 3 dispersion in MFD solution. The conditions noted are these: dissolved Drug 3, initial 90 min; MFD solution pH 6.5, 37° C., 200 μgA/mL dosed. In kind it is physicochemical.
The conditions of data set [5]: dissolved Drug 3; dispersion pre-suspended in 0.5 wt % Methocel A + 15 mg/mL HPMCAS-HF in PBS, then MFD; 200 μgA/mL dosed; Control 3 as in Example 5 test.
Method: The test was run in duplicate. The tubes were placed in a 37° C. temperature-controlled chamber, and 1.8 mL MFD solution at pH 6.5 and 290 mOsm/kg, was added to each respective tube. The samples were quickly mixed using a vortex mixer for about 60 seconds. The samples were centrifuged at 13,000 G at 37° C. for 1 minute. The resulting supernatant solution was then sampled and diluted 1:6 (by volume) with methanol and analyzed by high-performance liquid chromatography (HPLC). HPLC analysis was performed using a Waters Symmetry C8 column. The mobile phase consisted of 45% 20 mM KH2PO4, adjusted to pH 3, 30% acetonitrile, and 25% methanol. UV absorbance was measured at 270 nm. The contents of each tube were mixed on the vortex mixer and allowed to stand undisturbed at 37° C. until the next sample was taken. Samples were collected at 4, 10, 20, 40, 90, and 1200 minutes.
The solution was then analyzed for dissolved Drug 3 concentration versus time, as previously described.
Data set [6] in a line: In vitro dissolution test of Drug 2 dispersion in MFD solution. In kind it is physicochemical. The conditions noted are these: 37° C.
Method: Next, a 50 μL sample of this suspension was added to microcentrifuge tubes in duplicate. The tubes were placed in a 37° C. temperature-controlled chamber, and 1.75 mL MFD solution was added to each respective tube. […] The samples were quickly mixed using a vortex mixer for about 60 seconds. The samples were centrifuged at 13,000 G at 37° C. for 1 minute. The resulting supernatant solution was then sampled and diluted 1:6 (by volume) with methanol and then analyzed by high-performance liquid chromatography (HPLC). HPLC analysis was performed using an Agilent RX-C18 4.6×75 mm 3.5 μM column, with a mobile phase of 65/35 v/v 0.1 wt % trifluoroacetic acid/acetonitrile, and UV absorbance measured at 220 nm. The contents of each respective tube were mixed on the vortex mixer and allowed to stand undisturbed at 37° C. until the next sample was taken. Samples were collected at 4, 10, 20, 40, 90, and 1200 minutes.

From the text for Acidic pKa: Here, the term pKa is used in its traditional form, the pKa being the negative logarithm of the acid ionization constant.

As to `Nc1nc(C(=O)NCC2CC2)nc2c1[nH]c(=O)n2Cc1ccccc1` [Drug 1, 6-amino-9-benzyl-8-oxo-8,9-dihydro-7H-purine-2-carboxylic acid cyclopropylmethyl-amide], the solubility in data set [1] (fassif, MFD solution pH 6.5, read-out: solubility in a pH 6.5 MFD solution) is roughly 3 µg/mL (≈ 8.87 µM); in data set [2] (acetone, read-out: solubility in acetone), 25 µg/mL (≈ 73.9 µM); in data set [2] (methanol, read-out: solubility in methanol) it was 59 µg/mL (≈ 174 µM). For the same compound, the solubility in methanol result in data set [2] (crystalline neutral form, methanol) is listed as “about 0.059 mgA/mL”. In “Acidic pKa”, this compound displayed a pKa of 7.3. The compound also registered a C1200 in data set [3] (Drug 1 concentration at 1200 minutes) of less than 0.1 µg/mL. Besides, the MDC90 in data set [3] (dissolved Drug 1, first 90 min, 200 μgA/mL dosed) came to 1 µg/mL. For the same compound, the AUC90 in data set [3] (dissolved Drug 1, initial 90 min, 200 μgA/mL dosed) was less than 88 µg·min/mL.
Regarding `Cc1c(S(=O)(=O)c2ccc(=O)[nH]n2)oc2ccc(Cl)cc12` [Drug 3, 6-(5-chloro-3-methyl-benzofuran-2-sulfonyl)-2H-pyridazin-3-one], the AUC90 in data set [4] and in data set [5] was 540 min*μgA/mL throughout. Also, the MDC90 in data set [4] and in data set [5] was 8 μgA/mL throughout. In addition, the solubility in data set [1] (phosphate buffered saline, aqueous buffer, PBS pH 6.5, read-out: solubility in phosphate buffered saline solution at pH of 6.5) is less than 1 µg/mL; in data set [2] (THF, 25° C., neutral form, read-out: solubility in THF at 25° C.) it was roughly 12000 µg/mL (≈ 37000 µM); in data set [2] (acetone, 25° C., neutral form, read-out: solubility in acetone at 25° C.), roughly 4700 µg/mL (≈ 14500 µM); in data set [2] (methanol, 25° C., neutral form, read-out: solubility in methanol at 25° C.), roughly 1500 µg/mL (≈ 4620 µM). Also, the “acidic pKa” value in the data set “Acidic pKa” is reported as 6.9.
The compound `Nc1nc(C(F)(F)F)cc2c1[nH]c(=O)n2Cc1ccccc1` [Drug 2, 4-amino-1-benzyl-6-trifluoromethyl-1,3-dihydro-imidazo[4,5-c]pyridine-2-one] gave a pKa in “Acidic pKa” of 11.3. Further, the C1200 in data set [6] (Drug 2 concentration at 1200 minutes) was 1.0 µg/mL. The compound also gave an AUC90 in data set [6] (dissolved Drug 2, initial 90 min, 200 μgA/mL dosed) of 44 µg·min/mL.

The solubility is the dissolved amount per volume that the medium holds. The pKa is the pH at which an ionisable group is half protonated.
